pIC50: −log10 of the molar value. Where a name gives a salt, the structure may show the parent alone.

GCN2, sequence (Q9P2K8 whole entry, species assumed): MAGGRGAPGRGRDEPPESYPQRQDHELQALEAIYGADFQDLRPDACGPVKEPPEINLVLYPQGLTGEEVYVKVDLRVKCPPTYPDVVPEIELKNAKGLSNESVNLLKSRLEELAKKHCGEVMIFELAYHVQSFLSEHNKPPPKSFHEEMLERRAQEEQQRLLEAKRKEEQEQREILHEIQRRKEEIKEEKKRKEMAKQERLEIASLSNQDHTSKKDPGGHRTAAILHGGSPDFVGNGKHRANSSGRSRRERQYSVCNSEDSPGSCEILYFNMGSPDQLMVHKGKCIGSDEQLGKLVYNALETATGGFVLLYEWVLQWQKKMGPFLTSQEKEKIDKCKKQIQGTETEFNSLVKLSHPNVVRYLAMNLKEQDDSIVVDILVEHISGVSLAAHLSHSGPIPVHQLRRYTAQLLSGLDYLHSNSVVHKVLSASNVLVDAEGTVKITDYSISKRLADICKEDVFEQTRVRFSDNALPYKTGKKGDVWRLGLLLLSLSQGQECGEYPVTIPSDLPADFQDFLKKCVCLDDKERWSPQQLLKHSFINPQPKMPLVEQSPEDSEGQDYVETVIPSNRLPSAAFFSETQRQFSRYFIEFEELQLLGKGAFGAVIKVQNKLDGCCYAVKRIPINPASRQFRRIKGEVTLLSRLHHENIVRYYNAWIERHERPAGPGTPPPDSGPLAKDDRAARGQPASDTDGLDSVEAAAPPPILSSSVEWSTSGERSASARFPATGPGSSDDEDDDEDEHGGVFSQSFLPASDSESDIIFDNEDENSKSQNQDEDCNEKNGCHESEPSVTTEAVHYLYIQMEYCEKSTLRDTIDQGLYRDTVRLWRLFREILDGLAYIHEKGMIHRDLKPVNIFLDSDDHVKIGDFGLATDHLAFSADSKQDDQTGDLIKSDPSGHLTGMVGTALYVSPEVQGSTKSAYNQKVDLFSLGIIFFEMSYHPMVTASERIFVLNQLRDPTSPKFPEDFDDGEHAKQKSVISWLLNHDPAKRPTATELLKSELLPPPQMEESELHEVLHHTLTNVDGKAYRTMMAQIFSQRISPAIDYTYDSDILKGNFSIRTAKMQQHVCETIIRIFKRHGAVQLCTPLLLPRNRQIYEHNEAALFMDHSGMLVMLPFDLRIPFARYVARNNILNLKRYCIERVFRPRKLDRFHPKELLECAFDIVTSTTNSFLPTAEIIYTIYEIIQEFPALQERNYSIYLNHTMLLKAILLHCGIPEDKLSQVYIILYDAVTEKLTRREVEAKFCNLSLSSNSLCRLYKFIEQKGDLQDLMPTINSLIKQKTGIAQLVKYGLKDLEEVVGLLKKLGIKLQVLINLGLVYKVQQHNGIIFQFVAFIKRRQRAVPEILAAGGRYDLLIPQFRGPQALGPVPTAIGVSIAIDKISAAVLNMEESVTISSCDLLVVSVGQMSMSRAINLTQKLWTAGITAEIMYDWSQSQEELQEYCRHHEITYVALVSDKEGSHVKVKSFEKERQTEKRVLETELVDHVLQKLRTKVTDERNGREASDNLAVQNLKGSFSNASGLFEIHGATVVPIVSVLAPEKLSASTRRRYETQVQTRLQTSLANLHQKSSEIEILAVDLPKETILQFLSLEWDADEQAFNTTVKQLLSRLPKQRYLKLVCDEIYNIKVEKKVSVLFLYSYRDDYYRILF

This assay addresses GCN2 (Homo sapiens, UniProt Q9P2K8). In words: GCN2 enzyme assay (TR-FRET Lanthascreen, GFP-eIF2alpha phosphorylation). As to conditions: 10 μM ATP, 80 nM GFP-eIF2a substrate, 30 nM GCN2, room temperature. Type of assay: biochemical. The source says: GCN2: Assay Principle & Conditions
This assay can quantificate the activity of the serin kinase GCN2 (general control non-derepressible-2).
This kinase is involved in the stress metabolism of cells. It is activated upon starvation (amino acid depletion). Its natural substrate is eIF2a (eukaryotic initiation factor 2 alpha subunit), a translation factor, which gets activated (phosphorylated) by GCN2 in case of an amino acid bottleneck in the cells. This in turn leads to a halt of the protein synthesis. Inhibition of GCN2 results in stopping this mechanism: The cell can not stop protein production upon “starvation” stress.
The assay is run in two steps: the enzymatic reaction and the detection step. In the first step GCN2 is incubated with 10 μM ATP and 80 nM of the GFP-labelled substrate elF2alpha at room temperature.
The enzymatic reaction is stopped by addition of EDTA. The amount of phosphorylated elF2alpha is determined by TR-FRET (Lanthascreen): A complex is formed consisting of antibody and GFP labelled phospho-eIF2a, which allows a FRET upon exitation at 340 nm.
Final Concentrations in the Enzymatic Reaction
For the compound `CCn1cc(Nc2ncc3ncn(-c4ccc5c(c4)NC(=O)C5(C)C)c3n2)cn1` [Compound A9, 6-(2-((1-ethyl-1H-pyrazol-4-yl)amino)-9H-purin-9-yl)-3,3-dimethylindolin-2-one], the pIC50 was more than 6.00.

In turn, `O[C@H]1CC[C@H](Nc2ncc3ncn(-c4ccc(I)c(F)c4)c3n2)C1` (relative stereo) [Compound A27, (trans)-3-[9-(3-fluoro-4-iodo-phenyl)-9H-purin-2-ylamino]-cyclopentanol] had a pIC50 of 5.00 to 5.30.

`CCOc1ccc(-n2cnc3cnc(Nc4cnn(C5CCC(N)CC5)c4)nc32)cc1` (stereo not shown) [Compound A17, N-(1-(4-aminocyclohexyl)-1H-pyrazol-4-yl)-9-(4-ethoxyphenyl)-9H-purin-2-amine hydrochloride] gave a pIC50 of more than 6.00.

`CCOc1ccc(-n2cnc3cnc(N[C@@H]4CC[C@@H](C(N)=O)C4)nc32)cc1` [Compound A32, (1R,3R)-3-[9-(4-ethoxy-phenyl)-9H-purin-2-ylamino]-cyclopentanecarboxylic acid amide]: the pIC50 was 5.30 to 6.00.

In the case of `COc1ccc(-n2cnc3cnc(Nc4ccn(C)n4)nc32)cc1` [Compound A19, [9-(4-methoxy-phenyl)-9H-purin-2-yl]-(1-methyl-1H-pyrazol-3-yl)-amine], the pIC50 is 5.30 to 6.00.

As for `Cn1cc(Nc2ncc3ncn(-c4ccc(-c5cnn(C)c5)cc4)c3n2)cn1` [Compound A21, (1-methyl-1H-pyrazol-4-yl)-{9-[4-(1-methyl-1H-pyrazol-4-yl)-phenyl]-9H-purin-2-yl}-amine], the pIC50 was more than 6.00.

On to `CCOc1ccc(-n2c(C)nc3cnc(Nc4cnn(C5CCN(C)CC5)c4)nc32)cc1` [Compound A6, 9-(4-ethoxyphenyl)-8-methyl-N-(1-(1-methylpiperidin-4-yl)-1H-pyrazol-4-yl)-9H-purin-2-amine], for which the pIC50 was 5.30 to 6.00.

Turning to `Fc1cc(-n2cnc3cnc(Nc4cnn(C5CCOCC5)c4)nc32)ccc1Cl` [Compound A12, 9-(4-chloro-3-fluorophenyl)-N-(1-(tetrahydro-2H-pyran-4-yl)-1H-pyrazol-4-yl)-9H-purine-2-amine], the negative logarithm of the IC50 (pIC50) is more than 6.00.

`COCCOc1ccc(-n2cnc3cnc(Nc4cnn(C5CCN(C)CC5)c4)nc32)cc1` [Compound A2, 9-(4-(2-methoxyethoxy)phenyl)-N-(1-(1-methylpiperidin-4-yl)-1H-pyrazol-4-yl)-9H-purin-2-amine] had a pIC50 of more than 6.00.

For the compound `CCn1cc(Nc2ncc3ncn(-c4cnn(CC)c4)c3n2)cn1` [Compound A4, N,9-bis-(1-ethyl-1H-pyrazol-4-yl)-9H-purin-2-amine], the negative logarithm of the IC50 (pIC50) was more than 6.00.

Regarding `COCCn1cc(-c2ccc(-n3cnc4cnc(N[C@@H]5CC[C@@H](C(N)=O)C5)nc43)cc2F)cn1` [Compound A35, (1R,3R)-3-(9-{3-fluoro-4-[1-(2-methoxy-ethyl)-1H-pyrazol-4-yl]-phenyl}-9H-purin-2-ylamino)-cyclopentanecarboxylic acid amide], the pIC50 was more than 6.00.

`Cn1cc(-c2ccc(-n3cnc4cnc(N[C@@H]5CC[C@@H](O)C5)nc43)cc2)cn1` (relative stereo) [Compound A30, (trans)-3-{9-[4-(1-Methyl-1H-pyrazol-4-yl)-phenyl]-9H-purin-2-ylamino}-cyclopentanol]: the pIC50 was 5.30 to 6.00.

`Cn1cc(Nc2ncc3ncn(-c4ccc(-c5cnn(C6CCNCC6)c5)cc4)c3n2)cn1` [Compound A23, (1-methyl-1H-pyrazol-4-yl)-{9-[4-(1-piperidin-4-yl-1H-pyrazol-4-yl)-phenyl]-9H-purin-2-yl}-amine]: the pIC50 is more than 6.00.

Compound `Cn1cc(Nc2ncc3nc(N)n(-c4ccc(-c5cnn(C6CCNCC6)c5)cc4)c3n2)cn1` [Compound A26, N2-(1-methyl-1H-pyrazol-4-yl)-9-[4-(1-piperidin-4-yl-1H-pyrazol-4-yl)-phenyl]-9H-purine-2,8-diamine] gave a pIC50 of 5.30 to 6.00.

As to `COCCn1cc(-c2ccc(-n3cnc4cnc(N[C@H]5CC[C@H](O)C5)nc43)cc2F)cn1` (relative stereo) [Compound A29, (trans)-3-(9-{3-fluoro-4-[1-(2-methoxy-ethyl)-1H-pyrazol-4-yl]-phenyl}-9H-purin-2-ylamino)-cyclopentanol], the pIC50 was 5.30 to 6.00.

Take `NC(=O)[C@@H]1CC[C@@H](Nc2ncc3ncn(-c4ccc(I)cc4)c3n2)C1` [Compound A33, (1R,3R)-3-[9-(4-iodo-phenyl)-9H-purin-2-ylamino]-cyclopentanecarboxylic acid amide]: the pIC50 is 5.30 to 6.00.

With `COc1ccc(-n2cnc3cnc(Nc4cn[nH]c4)nc32)cc1` [Compound A18, [9-(4-methoxy-phenyl)-9H-purin-2-yl]-(1H-pyrazol-4-yl)-amine], the pIC50 is more than 6.00.

With `COCCN1CCC(n2cc(Nc3ncc4ncn(-c5ccc(OC)cc5)c4n3)cn2)CC1` [Compound A13, N-(1-(1-(2-methoxyethyl)piperidin-4-yl)-1H-pyrazol-4-yl)-9-(4-methoxyphenyl)-9H-purin-2-amine], the pIC50 is more than 6.00.

`COCCn1cc(-c2ccc(-n3cnc4cnc(N[C@@H]5CCN(C(=O)CCN6CCN(C)CC6)C5)nc43)cc2)cn1` [Compound A39, 1-[(R)-3-(9-{4-[1-(2-methoxy-ethyl)-1H-pyrazol-4-yl]-phenyl}-9H-purin-2-ylamino)-pyrrolidin-1-yl]-3-(4-methyl-piperazin-1-yl)-propan-1-one] gave a pIC50 of 5.30 to 6.00.

As for `NC(=O)c1ccc(-n2cnc3cnc(Nc4cnn(C5CCOCC5)c4)nc32)cc1` [Compound A3, 4-(2-((1-(tetrahydro-2H-pyran-4-yl)-1H-pyrazol-4-yl)amino)-9H-purin-9-yl)benzamide], the pIC50 is more than 6.00.

In turn, `CCOc1ccc(-n2cnc3cnc(Nc4cnn(CCCC5CCNCC5)c4)nc32)cc1` [Compound A11, 9-(4-ethoxyphenyl)-N-(1-(3-(piperidin-4-yl)propyl)-1H-pyrazol-4-yl)-9H-purin-2-amine hydrochloride] gave a negative logarithm of the IC50 (pIC50) of more than 6.00.

Take `NC(=O)[C@@H]1CC[C@@H](Nc2ncc3ncn(-c4ccc(I)c(F)c4)c3n2)C1` [Compound A31, (1R,3R)-3-[9-(3-fluoro-4-iodo-phenyl)-9H-purin-2-ylamino]-cyclopentanecarboxylic acid amide]: the pIC50 was 5.30 to 6.00.

As for `Cc1ccc2cc(-n3cnc4cnc(N[C@@H]5CC[C@@H](C(N)=O)C5)nc43)ccc2n1` [Compound A37, (1R,3R)-3-[9-(2-methyl-quinolin-6-yl)-9H-purin-2-ylamino]-cyclopentanecarboxylic acid amide], the pIC50 is more than 6.00.

In turn, `CCOc1ccc(-n2cnc3cnc(Nc4cnn(CCn5cccn5)c4)nc32)cc1` [Compound A10, N-(1-(2-(1H-pyrazol-1-yl)ethyl)-1H-pyrazol-4-yl)-9-(4-ethoxyphenyl)-9H-purin-2-amine] gave a pIC50 of more than 6.00.

`Cn1cc(Nc2ncc3nc(N)n(-c4ccc(-c5cnn(C)c5)cc4)c3n2)cn1` [Compound A24, N2-(1-methyl-1H-pyrazol-4-yl)-9-[4-(1-methyl-1H-pyrazol-4-yl)-phenyl]-9H-purine-2,8-diamine] gave a pIC50 of 5.30 to 6.00.

Turning to `COc1ccc(-n2cnc3cnc(Nc4cnn(-c5ccccc5)c4)nc32)cc1` [Compound A20, [9-(4-methoxy-phenyl)-9H-purin-2-yl]-(1-phenyl-1H-pyrazol-4-yl)-amine], the pIC50 was 5.00 to 5.30.

Consider `COCCn1cc(-c2ccc(-n3cnc4cnc(N[C@@H]5CCNC5)nc43)cc2)cn1` [Compound A38, (9-{4-[1-(2-methoxy-ethyl)-1H-pyrazol-4-yl]-phenyl}-9H-purin-2-yl)-(R)-pyrrolidin-3-yl-amine], for which the pIC50 was 5.00 to 5.30.

For `CCOc1ccc(-n2cnc3cnc(Nc4cnn(C5CCN(C)CC5)c4)nc32)cc1` [Compound A1, 9-(4-ethoxyphenyl)-N-(1-(1-methylpiperidin-4-yl)-1H-pyrazol-4-yl)-9H-purin-2-amine], the pIC50 is more than 6.00.

For `CCn1cc(Nc2ncc3ncn(-c4ccc(C(=O)NCC(O)CO)cc4)c3n2)cn1` (stereo not shown) [Compound A22, N-(2,3-dihydroxy-propyl)-4-[2-(1-ethyl-1H-pyrazol-4-ylamino)-purin-9-yl]-benzamide], the pIC50 was 5.30 to 6.00.

Take `CCn1cc(Nc2ncc3nc(N)n(-c4ccc(C(=O)NCCO)cc4)c3n2)cn1` [Compound A25, 4-[8-amino-2-(1-ethyl-1H-pyrazol-4-ylamino)-purin-9-yl]-N-(2-hydroxy-ethyl)-benzamide]: the pIC50 was 5.00 to 5.30.

`COc1ccc(-n2cnc3cnc(Nc4cnn(C5CCN(C)CC5)c4)nc32)cc1` [Compound A16, 9-(4-methoxyphenyl)-N-(1-(1-methylpiperidin-4-yl)-1H-pyrazol-4-yl)-9H-purin-2-amine] gave a pIC50 of more than 6.00.

Compound `COCCOc1ccc(-n2cnc3cnc(N[C@@H]4CC[C@@H](C(N)=O)C4)nc32)cc1` [Compound A34, (1R,3R)-3-{9-[4-(2-methoxy-ethoxy)-phenyl]-9H-purin-2-ylamino}-cyclopentanecarboxylic acid amide] gave a pIC50 of 5.30 to 6.00.

Take `CCn1cc(-n2cnc3cnc(Nc4cnn(C5CCOCC5)c4)nc32)cn1` [Compound A5, 9-(1-ethyl-1H-pyrazol-4-yl)-N-(1-(tetrahydro-2H-pyran-4-yl)-1H-pyrazol-4-yl)-9H-purin-2-amine]: the pIC50 is more than 6.00.

Compound `CCOCCn1cc(-c2ccc(-n3cnc4cnc(N[C@@H]5CC[C@@H](C(N)=O)C5)nc43)cc2)cn1` [Compound A36, (1R,3R)-3-(9-{4-[1-(2-ethoxy-ethyl)-1H-pyrazol-4-yl]-phenyl}-9H-purin-2-ylamino)-cyclopentanecarboxylic acid amide] gave a pIC50 of more than 6.00.

Source of the values: patent US9617266B2, “Imidazopyrimidine derivatives” (Merck Patent GmbH, priority 2013, dated 2017).
